The subject of one series is LX-2. As to the kind of experiment: Anti-fibrotic activity in human LX-2 cells assessed as inhibition of alpha-SMA mRNA expression. The series is classed as functional. Also noted: scale not given: the % may be the effect or the level left.
In series [1] the target is Collagen alpha-1(I) chain (Homo sapiens) (UniProt P02452). As to the kind of experiment: Inhibition of COL1A1 (unknown origin) transfected in human LX-2 cells at 40 uM incubated for 24 hrs by Bright-Glo luciferase assay relative to control. Type of series: cell-based.
Series [2] can be described thus: Anti-hepatic activity in rat HSC-T6 cells assessed as inhibition of LPS-induced cell proliferation at 10 uM incubated for 24 hrs by MTS assay relative to control. The series is classed as functional. On the technique in general: Tetrazolium assays rely on reduction of a dye to a coloured formazan, in cell work by metabolically active cells.
Series [3] can be described thus: Cmax in Sprague-Dawley rat at 25 mg/kg, po measured after 8 hrs. The series is classed as ADME, organism-based. The conditions noted are these: in vivo.

Sequence of Collagen alpha-1(I) chain (Homo sapiens) (P02452 whole entry): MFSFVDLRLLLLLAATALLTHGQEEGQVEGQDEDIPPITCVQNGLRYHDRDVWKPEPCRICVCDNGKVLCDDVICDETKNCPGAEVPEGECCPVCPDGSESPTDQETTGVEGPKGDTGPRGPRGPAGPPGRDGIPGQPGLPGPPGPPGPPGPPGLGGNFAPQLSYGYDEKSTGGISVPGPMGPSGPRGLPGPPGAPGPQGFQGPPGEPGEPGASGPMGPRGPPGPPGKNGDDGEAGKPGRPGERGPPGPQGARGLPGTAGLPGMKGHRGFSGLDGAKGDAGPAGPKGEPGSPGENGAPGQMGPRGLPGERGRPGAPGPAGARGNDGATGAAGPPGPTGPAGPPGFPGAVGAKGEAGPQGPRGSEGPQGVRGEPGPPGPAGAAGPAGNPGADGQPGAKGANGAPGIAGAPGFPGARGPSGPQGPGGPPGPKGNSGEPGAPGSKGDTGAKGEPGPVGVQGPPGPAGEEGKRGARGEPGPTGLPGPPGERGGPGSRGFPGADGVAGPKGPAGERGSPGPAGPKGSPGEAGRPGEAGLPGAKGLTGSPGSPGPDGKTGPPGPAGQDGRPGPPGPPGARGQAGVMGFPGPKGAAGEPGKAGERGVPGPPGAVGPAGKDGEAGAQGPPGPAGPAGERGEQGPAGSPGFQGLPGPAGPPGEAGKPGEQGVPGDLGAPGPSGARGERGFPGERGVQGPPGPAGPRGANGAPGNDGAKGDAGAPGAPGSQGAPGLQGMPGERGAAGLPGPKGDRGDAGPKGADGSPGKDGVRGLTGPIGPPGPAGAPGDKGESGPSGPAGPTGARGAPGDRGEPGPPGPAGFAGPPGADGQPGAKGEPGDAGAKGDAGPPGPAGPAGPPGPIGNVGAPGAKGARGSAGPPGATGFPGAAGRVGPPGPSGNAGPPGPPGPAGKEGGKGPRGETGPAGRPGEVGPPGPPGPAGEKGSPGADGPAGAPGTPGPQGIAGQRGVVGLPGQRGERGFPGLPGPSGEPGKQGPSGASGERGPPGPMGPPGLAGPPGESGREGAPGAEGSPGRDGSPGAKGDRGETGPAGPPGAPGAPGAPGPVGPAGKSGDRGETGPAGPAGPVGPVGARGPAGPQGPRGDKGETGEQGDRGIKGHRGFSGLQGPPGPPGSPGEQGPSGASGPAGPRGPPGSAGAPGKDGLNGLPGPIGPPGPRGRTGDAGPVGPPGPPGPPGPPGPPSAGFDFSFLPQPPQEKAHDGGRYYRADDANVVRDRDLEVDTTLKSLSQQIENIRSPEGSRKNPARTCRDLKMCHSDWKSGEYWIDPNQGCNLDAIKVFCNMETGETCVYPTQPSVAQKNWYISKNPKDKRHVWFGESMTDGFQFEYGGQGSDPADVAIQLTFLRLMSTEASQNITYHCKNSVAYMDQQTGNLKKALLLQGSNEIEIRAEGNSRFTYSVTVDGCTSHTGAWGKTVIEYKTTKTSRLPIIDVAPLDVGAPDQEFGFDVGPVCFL

On to `CCCCCCCCN(C)C(=O)c1cc(O)c(O)c(O)c1`, for which, in the series on LX-2, the Activity was determined as 47.7%.

In the case of `O=c1cccc2n1C[C@@H]1CNC[C@H]2C1`, the inhibition in series [1] turned out to be 90%.

As for `COC(=O)c1cc2cc(OC)c(OC)cc2c2cc(C)ccc12`, the inhibition at 10 µM in series [2] amounted to 34.2%. Compound `C1=C2CCCN[C@H]2[C@@H]2C[C@H]1[C@H]1CCCCN1C2` displayed an inhibition in series [1] of 4.7%. `O=c1cccc2n1CC1CC2CN(Cc2cc(Cl)ccc2Cl)C1` (stereo not given): in series [3], the concentration peaked (Cmax) at 960 nM.

A word on the inhibition: it is the percentage by which the read-out fell short of the control. A word on the Cmax: it is the maximum level reached in the sampled fluid or tissue.

The values above are taken from ChEMBL document CHEMBL6177943, “Recent advances in small molecule design strategies against hepatic fibrosis” (Eur J Med Chem, 2025).
